Key:
Assay type in all cases: functional
Culex quinquefasciatus [1] = experiment: Insecticidal activity against Culex quinquefasciatus assessed as contact mortality at 0.025 mg/ml at 24 hr by standard immersion method relative to control
Culex quinquefasciatus [2] = experiment: Insecticidal activity against Culex quinquefasciatus assessed as contact mortality at 0.025 mg/ml at 12 hr by standard immersion method relative to control
Culex quinquefasciatus [3] = experiment: Insecticidal activity against Culex quinquefasciatus assessed as contact mortality at 0.025 mg/ml at 1 hr by standard immersion method relative to control
Culex quinquefasciatus [4] = experiment: Insecticidal activity against Culex quinquefasciatus assessed as contact mortality at 0.025 mg/ml at 4 hr by standard immersion method relative to control

`C=CC(OC(=O)C(c1ccc(Cl)cc1)C(C)C)c1ccc(OC(C)=O)c(OC)c1` (centres undefined) showed a mortality at 25 µg/mL (Culex quinquefasciatus [1]) of 85%, a mortality at 25 µg/mL (Culex quinquefasciatus [2]) of 47% and a mortality at 25 µg/mL (Culex quinquefasciatus [3]) of 14%. For the same molecule, the mortality at 25 µg/mL (Culex quinquefasciatus [4]) was 25%.
Work on `C=CC(OC(=O)C(c1ccc(Cl)cc1)C(C)C)c1ccc(OCC)c(OC)c1` (centres undefined) yielded a mortality at 25 µg/mL (Culex quinquefasciatus [1]) of 96%, a mortality at 25 µg/mL (Culex quinquefasciatus [2]) of 42% and a mortality at 25 µg/mL (Culex quinquefasciatus [3]) of 10%. It also gave a mortality at 25 µg/mL (Culex quinquefasciatus [4]) of 23%.
Molecule `C=CC(OC(=O)C1C(C=C(C)C)C1(C)C)c1ccc(OC(C)=O)c(OC)c1` (centres undefined) has a mortality at 25 µg/mL (Culex quinquefasciatus [1]) of 88%, a mortality at 25 µg/mL (Culex quinquefasciatus [2]) of 34% and a mortality at 25 µg/mL (Culex quinquefasciatus [3]) of 10%. The mortality at 25 µg/mL (Culex quinquefasciatus [4]) was 25%.
With `C=CC(OC(=O)C1C(C=C(C)C)C1(C)C)c1ccc(OCC)c(OC)c1` (centres undefined) the mortality at 25 µg/mL (Culex quinquefasciatus [1]) was 97%, the mortality at 25 µg/mL (Culex quinquefasciatus [2]) was 40% and the mortality at 25 µg/mL (Culex quinquefasciatus [3]) was 15%. It also gave a mortality at 25 µg/mL (Culex quinquefasciatus [4]) of 22%.
For `C=CCC1=C(C)C(OC(=O)C2C(C=C(C)C)C2(C)C)CC1=O` (centres undefined) [Allethrin], the mortality at 25 µg/mL (Culex quinquefasciatus [1]) was 85%, the mortality at 25 µg/mL (Culex quinquefasciatus [2]) was 33% and the mortality at 25 µg/mL (Culex quinquefasciatus [3]) was 12%. For the same molecule, the mortality at 25 µg/mL (Culex quinquefasciatus [4]) was 20%.
`CC(C)C(C(=O)OC(C#N)c1cccc(Oc2ccccc2)c1)c1ccc(Cl)cc1` (centres undefined) [FENVALERATE] gave a mortality at 25 µg/mL (Culex quinquefasciatus [1]) of 88%, a mortality at 25 µg/mL (Culex quinquefasciatus [2]) of 40% and a mortality at 25 µg/mL (Culex quinquefasciatus [3]) of 10%. The mortality at 25 µg/mL (Culex quinquefasciatus [4]) was 18%.
